Experimental findings from patent publication US11718650B2, “Immunogenic peptides and their use in immune disorders” (IMCYSE SA, priority 2006, dated 2023) are described below.

No end group written: not given here.

In series [1] the test system is regulatory T cell clones with cytolytic activity. Put plainly: activation of cytolytic regulatory T cell clones by peptide-loaded APC. It counts as cell-based. As to conditions: versus C-x-x-S counterpart. How it is done: Antigen-presenting cells were loaded with p21-35 in its native configuration [SEQ ID. NO: 2] or p21-35 in which serine in position 24 is substituted by cysteine […] [SEQ ID. NO: 29]. This substitution creates a redox moiety of the type C-x-x-C.
Several regulatory T cell clones with cytolytic activity were incubated with APC. […] The granzymes are two of the key players in induction of apoptosis of target cells.

In a further series the test system is p21-35-loaded Wehi cells. Put plainly: derivatisation of T cell clones after immunisation, screening for apoptosis of p21-35-loaded Wehi cells. It counts as in vivo, mouse. How it is done:
Derivatisation of regulatory T cell clones. BALB/c mice were immunised by 3 footpad injections of 20 μg/ml peptide mp21-35Asn in alum at 2 weeks intervals. Ten days after the last injection, spleen CD4+ T cells were stimulated with T cell depleted splenocytes from naïve mice in the presence of peptide mp21-35Asn. After 10 days, cells were restimulated in the same conditions but with 10 U/ml mouse II-2 (Roche). After the fifth restimulation, T cells were subcloned in the presence of 10 U/ml IL-2 by limiting dilution. The subsequent specific stimulations were carried out in the presence of 20 U/ml mouse IL-2. The G121 T cell line was derived as previously described (Janssens et al. (2003) J. Immunol. 171, 4604-4612.
T cell clones were derived for phenotypic analysis from the spleen of mice injected with either mp21-35Asn in alum, mp21-35Asn in CFA/IFA (complete or incomplete Freund adjuvant), Der p 2 or saline as a control. A total of 17 clones were obtained, which expansion was fully dependent of addition of IL-2. These clones were maintained at rest for 10 days before assessing expression of CD25. Positive clones were then screened for their capacity to induce apoptosis of p21-35-loaded Wehi cells using annexin V binding as readout.

Series [2] deals with WEHI cells. Put plainly: T cell clones from mice immunised with gp75-targeted Der p 1 peptides, lysis of WEHI cells. It counts as in vivo, mouse. As to conditions: 20 μg SC on aluminium hydroxide, three injections. How it is done: Groups of BALB/c mice were immunised subcutaneously (20 μg) with the experimental peptide [SEQ ID. NO: 10] or the control peptide [SEQ ID, NO: 11] adsorbed onto aluminium hydroxide. Three injections were performed at 2-week intervals. Ten days after the last immunisation, mice were sacrificed and CD4+ T cells prepared from the spleen using magnetic beads, CD4+ T cells (2×10^6 cells) were then stimulated in vitro by the Der p 1 T cell epitope (20 μg) presented by adherent spleen cells serving as antigen-presenting cells.
Ten days after stimulation the number of specific T cell lines obtained in each group was calculated by limiting dilution analysis. Each cell line was evaluated for its capacity to lyse WEHI cells, a B cell line selected for its efficacy in antigen-presentation by MHC class-II determinants, as described in Example 6. Only cells obtained from animals immunised with the peptide containing the glutaredoxin consensus sequence had acquired the capacity to lyse WEHI cells, and lysis occurs only in the presence of the cognate Der p 1 T cell epitope.

Series [3] has as its system BALB/c mice. Put plainly: beta-lactoglobulin allergy mouse model. Type of series: in vivo. How it is done: BALB/c mice are immunised by 2 SC injections with 20 μg of the peptide of sequence CHGC AQKKIIAEK [SEQ ID. NO: 30] in alum. This is followed 15 days later by intraperitoneal sensitisation to BLG (5 μg in alum), on 2 occasions at a fortnight interval. Alternatively, peptide administration is given 15 days after IP sensitisation to BLG.
Hypersensitivity to BLG is verified in the mouse by assessing bronchial hyperreactivity after intranasal administration of BLG. All mice are submitted to intranasal administration of 10 μg of BLG in saline 10 days after the last injections. A control group is included in which intraperitoneal sensitisation is carried out without peptide immunisation.

Series [4] has as its system Treg clone specific for p21-35. Put plainly: oxidative metabolism (ROS, carboxy-H2DCFDA) of cognate Treg cells. It counts as cell-based, mouse. The conditions noted are these: 20 μg/ml, 90 minutes. How it is done: A Treg clone (10^5 cells) specific for p21-35 was incubated for 90 minutes with PBS (FIG. 5, panel A), peptide p21-35 (20 μg/ml in 200 μl PBS; FIG. 5, panel B) or tert-butyl hydroperoxide (100 μM in PBS; FIG. 5, panel C), which is an inducer of Reactive Oxygen Species (ROS). Cells were then labelled for 30 minutes with carboxy-H2DCFDA (12 μM), a fluorogenic marker for ROS in live cells, and then analysed by flow cytometry.

Series [5] has as its system WEHI cells. Put plainly: apoptosis of peptide-loaded WEHI cells by cytolytic T cell clones, with inhibitors. Type of series: cell-based, mouse. As to conditions: two CFSE-labelled populations, G121 Treg, 18 hours. How it is done:
For inhibition of GZ-B activity, Z-AAD-CMK (Calbiochem) or 3,4-dichloroiso-coumarin (DCIC) (SIGMA) were added at indicated concentrations during all the co-culture period.
Experiments were carried out with p21-35-loaded CD11c dendritic (FIG. 13b: left panel) or WEHI cells (FIG. 13b: right panel). Upon incubation with R3TB7 virtually all dendritic cells (DC) or Wehi cells were induced into apoptosis as measured by caspase 3 activation.
Apoptosis can be induced by either the Fas-FasL pathway or by secretion of cytotoxic granules containing granzymes. Attempts were made to inhibit each of these pathways. Addition of increasing concentrations of an antibody towards FasL, or of granzyme B inhibitors, to a cell culture containing p21-35 loaded WEHI cells and a cytolytic T cell clone, increased the number of surviving WEHI cells in a dose-dependent manner (FIG. 13c). In a number of experiments it was shown that the anti-FasL antibody restored up to 80% of WEHI cell survival.
To further ascertain that APC lysis required direct contact with cytolytic T cells through MHC class II presentation of p21-35, an experiment was carried out in which two identical populations of Wehi cells were loaded with either p21-35 or with an irrelevant peptide (p71-85). These two populations could be distinguished by differential CFSE labelling. It can be seen from FIG. 13e that, while WEHI cells presenting p21-35 were fully lysed, only 40% of p71-85-loaded cells were affected.

In another series the test system is CD4+ effector T cells. Put plainly: activation of CD4+ effector T cells from patients sensitised to Der p 2. It counts as cell-based, human. From the text: Chemokines involved in attracting T lymphocytes to the lung are not precisely identified. The cytolytic Tregs described here express CD103 but not CCR7, which should confer them with the capacity to migrate to inflamed tissues. Other chemokines such as CCR5 and CCR3 were not detected. […] In an experimental model of asthma, including peripheral sensitisation and allergen inhalation, it was shown that Tregs have the capacity to prevent and suppress both inflammatory infiltration and airway hyperreactivity, which are the hallmarks of bronchial asthma. An LPS-free recombinant form of a main allergen, Der p 2, was used, which is involved in a large proportion of patients suffering from allergic asthma.

Series [6] concerns BALB/c mice. Put plainly: adoptive transfer of cytolytic T cell clones in asthma elicited by nasal instillation of Der p 1. It counts as in vivo, mouse. How it is done: BALB/c mice were submitted to 2 series of 3 daily nasal instillations separated by 1 week, using 100 μg of the Der p 1 allergen. The day after the last nasal instillation, mice are sacrificed and checked for the presence of alterations characteristic of allergic asthma in the bronchoalveolar space and lung.
Two additional groups of mice are adoptively transferred with cytolytic T cell clones obtained as described in Example 11 using the Der p 1 peptide with the motif, either prior to or after the first series of nasal instillations.
BALF differential cell counts were carried out 4 days after the last series of nasal instillations (6 BALB/c per group). Cells were obtained by bronchoalveolar lavage of lungs and identified on cytospins as macrophages, neutrophils, eosinophils or lymphocytes. Mice received 2 series of 3 nasal instillations with either 100 μg Der p 1 (model) or NaCl (negative).
Broncho-alveolar lavage fluids were tested for the presence of cytokines (Table 6).

Series [7] relates to BALB/c mice. Put plainly: T cell clones from BALB/c mice immunised with Der p 1 derived peptide. Type of series: in vivo, mouse. The conditions noted are these: 20 μg subcutaneous, 3 injections. How it is done:
Two groups of BALB/c mice were immunised by the subcutaneous route with either 20 μg of peptide with a T cell epitope sequence of the allergen Der p1 (SNYCQIYPPNANKIR [SEQ ID. NO: 5]) or a modified version thereof CGFS SNYCQIYPPNANKIR [SEQ ID. NO: 7] having at the N-terminus the sequence CGFS [SEQ ID. NO: 6].
After 3 injections, mice were sacrificed and CD4+ T cells were purified from the spleen and cloned by limiting dilution. T cell clones obtained from mice immunised with the SNYCQIYPPNANKIR [SEQ ID. […] Mice immunised with the peptide CGFS SNYCQIYPPNANKIR [SEQ ID.

Another series concerns G221N. Put plainly: peptide processing assay with effector T cell clone G221N. Type of series: cell-based, mouse. The conditions noted are these: NaN3/deoxyglucose, colchicine, chloroquine.
Where [8] appears, read: prior to or after sensitisation.

Regarding “CHGCEPCIIHRGKPF (p21-35 peptide of Der p2 allergen mutated at residue 24) [SEQ ID. NO: 29]”, in series [1], the “T cell activation assessed by cytokine production” value is “higher degree of T cell activation”; the “transcription of mRNA for FasL and granzymes” value is on record as “more than its C-x-x-S counterparts”.
On to “QYIKANSKFIGITELGGCHGSEPCNIHRGKPF (not fully specified (residues 18, 24); cysteine pairing not given here) [mp21-35Asn]”, for which the “cytolytic clones among CD4+CD25+ T cell clones” value with p21-35-loaded Wehi cells (immunised in CFA/IFA) is given as 0/5; with p21-35-loaded Wehi cells (immunised in alum) it was 8/8.
For “CGFS SNYCQIYPPNANKIR SGGSGGSGG IITIAVVAALLLVAAIFGVASCLIRSRSTKNEANQPLLTDS [SEQ ID. NO: 10]”, in the series with WEHI cells [2], the “T cell clones with Treg (cytotoxic) properties derived from immunised mice” value is “All T cell clones obtained after treatment with the construct and re-stimulated in vitro were cytotoxic”.
On to “SNYCQIYPPNANKIR SGGSGGSGG IITIAVVAALLLVAAIFGVASCLIRSRSTKNEANQPLLTDS [SEQ ID. NO: 11, reference compound]”, for which the “T cell clones with Treg (cytotoxic) properties derived from immunised mice” value in the series with WEHI cells [2] is recorded as “not from mice that received the control peptide”.
In the case of “CHGC AQKKIIAEK (CHGCAQKKIIAEK; thioredox motif sequence CHGC linked to T cell epitope of Bovine beta-lactoglobulin (BLG)) [SEQ ID. NO: 30]”, in the series with BALB/c mice [3] (20 μg in alum, 2 SC injections prior to or after sensitisation), the “capacity to react to BLG nasal instillation” value is “completely lost the capacity to react to BLG nasal instillation”. In the series on BALB/c mice [3] (setting [8]), the “eosinophils in bronchoalveolar lavage fluid” value was “lack of eosinophils” and the “hyperreactivity upon challenge with methacholine” value is “absence of hyperreactivity”.
Consider “CHGSEPCIIHRGKPF (the p21-35 peptide of Der p 2 allergen) [amino acids 21 to 35 of Der p 2]”, for which the “fluorescence intensity due to ROS increase” value in series [4] was “doubling”. The “lysis of WEHI cells loaded with the peptide” value with WEHI cells [5] is given as “fully lysed”. Moreover, the “activation of patients' CD4+ effector T cells” value in the series on CD4+ effector T cells is “activated CD4+ effector T cells from patients sensitised to Der p 2”.
With “p71-85: alternative major T cell epitope (p71-85) located on Der p 2 (NACHYMKCPLVKGQQ; UniProt P49278 88-102, looked up, fragment) [reference compound]”, in the series on p21-35-loaded Wehi cells (mouse, in vivo), the “induction of cytolytic Tregs towards the epitope” value is reported as “not possible to induce cytolytic Tregs”. Moreover, the “lysis of WEHI cells loaded with the peptide” value with WEHI cells [5] came out at 40%.
For the molecule “CGFSSNYCQIYPPNANKIR (glutaredoxin-like consensus sequence and dominant T cell epitope of the Der p 1 allergen) [SEQ ID. NO: 7]”, in the series on BALB/c mice [6] (Prevention), the “BAL IFN-gamma” value came to 0 pg/mL, the “BAL IL-2” value is 0.7 pg/mL, the “BAL IL-4” value is 0 pg/mL and the “BAL IL-5” value was determined as 0.3 pg/mL. In addition, in the series with BALB/c mice [6] (Prevention), the “BAL IL-10” value turned out to be 10 pg/mL, the “BAL IL-13” value is 0.2 pg/mL, the “BAL TGF-beta” value was 5.8 pg/mL and the “BAL TNF-alpha” value amounted to 0.7 pg/mL. Further, in the series on BALB/c mice [6] (Suppression), the “BAL IFN-gamma” value worked out at 0 pg/mL, the “BAL IL-2” value amounted to 0.8 pg/mL, the “BAL IL-4” value is 0.7 pg/mL and the “BAL IL-5” value came out at 0.5 pg/mL. For the same molecule, in the series with BALB/c mice [6] (Suppression), the “BAL IL-10” value was determined as 2 pg/mL, the “BAL IL-13” value was determined as 0.3 pg/mL, the “BAL TGF-beta” value was found to be 0 pg/mL and the “BAL TNF-alpha” value came out at 0 pg/mL. Moreover, in the series with BALB/c mice [7], the “type of T cell clones obtained from immunised mice” value is on record as “produced T cell clones with cytolytic properties”.
Turning to “SNYCQIYPPNANKIR (dominant T cell epitope of Der p 1 allergen) [SEQ ID. NO: 5, reference compound]”, the “type of T cell clones obtained from immunised mice” value in the series with BALB/c mice [7] is reported as “produced effector CD4+ T cells”.

B1: Der p 2: Recombinant full-length Der p 2 produced in Pichia pastoris (protein, UniProt P49278 1-146, looked up)
chain: MMYKILCLSLLVAAVARDQVDVKDCANHEIKKVLVPGCHGSEPCIIHRGKPFQLEAVFEANQNTKTAKIEIKASIDGLEVDVPGIDPNACHYMKCPLVKGQQYDIKYTWNVPKIAPKSENVVVTVKVMGDDGVLACAIATHAKIRD
modifications: full-length recombinant, Pichia pastoris
notes: Recombinant full-length Der p 2 produced in Pichia pastoris
Regarding B1, the “cytolytic clones among CD4+CD25+ T cell clones” value in the series on p21-35-loaded Wehi cells (mice immunised with Der p 2) was 0/4. Besides, in the series on G221N, the “requirement for internalisation, fusion with and acidification of late endosomes” value is listed as “required internalisation into antigen-presenting cells”.
